# Values quoted from earlier work, collected in patent publication US9675546B2, “Method of treating atrophic vaginitis” (priority 2006, dated 2017).
# Like-named read-outs stand apart in the source and are kept apart here.
# Experiments:
# [1] = not given; remark: listed apart in the source
# [2] = test system: breast cancer risk; details: progestogen combined with estrogens in HRT users
# [3] = not given; remark: listed apart in the source
# [4] = single oral dose of 20 mg tamoxifen
Time to steady state concentrations after initiation of therapy ([3]; oral),"Average steady state plasma concentration ([3]; oral, once daily for 3 months) [ng/mL]","Average peak plasma concentration [3, 4] [ng/mL]","Time of peak plasma concentration after dosing [3, 4]",Compound,Serum concentration (25 mg progesterone vaginal suppository) [ng/mL],Serum concentration (50 mg progesterone vaginal suppository) [ng/mL],Quality of life/menopausal symptoms: women with significant improvement in symptoms ([1]; MP-containing HRT compared with MPA-containing regimen),Cardiovascular Events ([1]; in vivo),Glucose/Insulin ([1]; in vivo),Liver function ([1]; in vivo),Sleep and Mood ([1]; in vivo),Risk of breast cancer (RR) [2],Lipid Profile ([1]; in vivo)
–,–,–,–,"CC(=O)[C@H]1CC[C@H]2[C@@H]3CCC4=CC(=O)CC[C@]4(C)[C@H]3CC[C@]12C [progesterone, pregn-4-ene-3, 20-dione]",7.27,8.84,symptoms in 80%.,MP: has antihypertensive action and can be safely used to treat,MP: augments the pancreatic response to glucose and increases,MP: does not effect liver enzymes or cause livie related side,MP: improves the quality of sleep and has sedative properties.,0.9,–
–,–,–,–,"CC(=O)O[C@]1(C(C)=O)CC[C@H]2[C@@H]3C[C@H](C)C4=CC(=O)CC[C@]4(C)[C@H]3CC[C@@]21C [MPA, Medroxyprogesterone Acetate]",–,–,–,"MPA: may cause fluid retention and edema, increases incidence",MPA: has been found to cause deterioration of glucose tolerance,MPA: contraindicted in patients with liver dysfunction.,"MPA: can cause insomnia, mental depression, and anxiety.",–,MPA: adversely effects lipid profile and negates the beneficial
about 4 weeks,122,40,approximately 5 hours,"CC/C(=C(\c1ccccc1)c1ccc(OCCN(C)C)cc1)c1ccccc1 [tamoxifen, 1-(p-dimethylamino-ethoxphenyl)-2-ethyl-1,2-diphenylethylene]",–,–,–,–,–,–,–,–,–
